Measured values: article PMC7377239, “Cardiovascular Effects of Polychlorinated Biphenyls and Their Major Metabolites” (Environmental Health Perspectives, 2020)
Read-outs that look alike come from different tables or passages of the source.

System: iCell cardiomyocytes (human iPSC-derived cardiomyocytes)
Assay: Intracellular Ca2+ flux / beating parameters in iCell cardiomyocytes (FLIPR tetra), 90 min or 24 h
Type: cell-based
Details: Homo sapiens, Cardiomyocyte, 0.00 µM = 100.00; for activity at 0.1 µM: 0.10 µM
In short: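 PODs were defined as the concentration crossing one SD of the vehicle-control means (0.5% DMSO) on four-parameter logistic fits of Ca2+ trace metrics (peak height, frequency, peak-spacing CV, decay/rise ratio). Traces came from 100 s, 8 Hz FLIPR reads at 37 °C on calcium-dye-loaded iCell cardiomyocytes. Before reading, cells were treated for 90 min or 24 h from 5× chemical plates spanning 0.05–500 µM, in triplicate.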

[1] = 1.5 h, read-out: cm.amp.avg.90min
[2] = 1.5 h, read-out: cm.amp.cv.90min
[3] = 1.5 h, read-out: cm.decay.rise.90min
[4] = 1.5 h, read-out: cm.spacing.cv.90min
[5] = 24 h, read-out: cm.amp.avg.24hrs
[6] = 24 h, read-out: cm.amp.cv.24hrs
[7] = 24 h, read-out: cm.decay.rise.24hrs
[8] = 24 h, read-out: cm.spacing.cv.24hrs

## Oc1ccccc1-c1ccc(Cl)cc1 [2'-OH PCB3]
[1]
  activity at 0.01 µM: 95.7%
  activity at 0.1 µM: 105%
  activity at 1 µM: 102%
  activity at 10 µM: 0%
  activity at 100 µM: 0%
[2]
  activity at 0.01 µM: 112%
  activity at 0.1 µM: 96.5%
  activity at 1 µM: 116%
  activity at 10 µM: 0%
  activity at 100 µM: 0%
1.5 h, read-out: cm.bpm.90min
  activity at 0.01 µM: 102%
  activity at 0.1 µM: 102%
  activity at 1 µM: 104%
  activity at 10 µM: 0%
  activity at 100 µM: 0%
[3]
  activity at 0.01 µM: 98.2%
  activity at 0.1 µM: 98.7%
  activity at 1 µM: 97.6%
  activity at 10 µM: 0%
  activity at 100 µM: 0%
[4]
  activity at 0.01 µM: 143%
  activity at 0.1 µM: 110%
  activity at 1 µM: 106%
  activity at 10 µM: 0%
  activity at 100 µM: 0%
[5]
  activity at 0.01 µM: 112%
  activity at 0.1 µM: 115%
  activity at 1 µM: 124%
  activity at 10 µM: 104%
  activity at 100 µM: 0%
[6]
  activity at 0.01 µM: 138%
  activity at 0.1 µM: 126%
  activity at 1 µM: 94.2%
  activity at 10 µM: 140%
  activity at 100 µM: 0%
24 h, read-out: cm.bpm.24hrs
  activity at 0.01 µM: 118%
  activity at 0.1 µM: 116%
  activity at 1 µM: 95.5%
  activity at 10 µM: 121%
  activity at 100 µM: 0%
[7]
  activity at 0.01 µM: 82.1%
  activity at 0.1 µM: 92.5%
  activity at 1 µM: 112%
  activity at 10 µM: 82.7%
  activity at 100 µM: 0%
[8]
  activity at 0.01 µM: 120%
  activity at 0.1 µM: 111%
  activity at 1 µM: 106%
  activity at 10 µM: 111%
  activity at 100 µM: 0%

## Oc1ccc(-c2cccc(Cl)c2)cc1Cl [4-OH PCB11]
[1]
  activity at 0.01 µM: 107%
  activity at 0.1 µM: 96%
  activity at 1 µM: 103%
  activity at 10 µM: 89.2%
  activity at 100 µM: 0%
[2]
  activity at 0.01 µM: 101%
  activity at 0.1 µM: 97.9%
  activity at 1 µM: 91.8%
  activity at 10 µM: 99%
  activity at 100 µM: 0%
1.5 h, read-out: cm.bpm.90min
  activity at 0.01 µM: 107%
  activity at 0.1 µM: 102%
  activity at 1 µM: 99.1%
  activity at 10 µM: 104%
  activity at 100 µM: 0%
[3]
  activity at 0.01 µM: 99.5%
  activity at 0.1 µM: 94.9%
  activity at 1 µM: 96.5%
  activity at 10 µM: 94.9%
  activity at 100 µM: 0%
[4]
  activity at 0.01 µM: 111%
  activity at 0.1 µM: 90.9%
  activity at 1 µM: 95.9%
  activity at 10 µM: 104%
  activity at 100 µM: 0%
[5]
  activity at 0.01 µM: 93.8%
  activity at 0.1 µM: 110%
  activity at 1 µM: 92.2%
  activity at 10 µM: 135%
  activity at 100 µM: 0%
[6]
  activity at 0.01 µM: 28.6%
  activity at 0.1 µM: 104%
  activity at 1 µM: 98.4%
  activity at 10 µM: 67.1%
  activity at 100 µM: 0%
24 h, read-out: cm.bpm.24hrs
  activity at 0.01 µM: 46.8%
  activity at 0.1 µM: 92.6%
  activity at 1 µM: 89.7%
  activity at 10 µM: 93.6%
  activity at 100 µM: 0%
[7]
  activity at 0.01 µM: 48.9%
  activity at 0.1 µM: 109%
  activity at 1 µM: 99.3%
  activity at 10 µM: 106%
  activity at 100 µM: 0%
[8]
  activity at 0.01 µM: 46.2%
  activity at 0.1 µM: 104%
  activity at 1 µM: 89.5%
  activity at 10 µM: 91.5%
  activity at 100 µM: 0%
